The values that follow come from patent US20190381500A1, “CELL CONTAINED CONTAINER AND CELL CONTAINED CONTAINER PRODUCING METHOD, AND CELL CHIP” (priority 2018, published 2019).

Each structure is given as a SMILES string.

The subject of data set [1] is nerve cells C and nerve cells D (differentiated from human induced iPS cells). The data set is described as follows: Drug efficacy screening (Hoechst 33342 / PI / Calcein AM staining, fluorescence microscope cell counting) in cell contained container 2. It is filed as cell-based. As to conditions: for Living cells / Dead cells: next day after addition. As to the method: The amount of the drug solution used was from 50 μL through 5,000 μL.
On the next day after the drug solution was added, the culture medium in each concave of the cell contained container was removed, and the concaves were washed with Hank's balanced salt solution (HBSS, available from Thermo Fisher Scientific Inc.) (200 microliters) at room temperature. After washing, HOECHST 33342 (available from Thermo Fisher Scientific Inc.), PI (Propidium Iodide, available from Cosmo Bio Co., Ltd.), and CALSEIN AM (available from Takara Bio Inc.) were each diluted 1,000-fold with HBSS, to prepare a stain mixture liquid, and the prepared stain mixture liquid was added in an amount of 200 microliters each. The cell contained container was then left to stand still in a 5% CO2 incubator for 20 minutes.
A fluorescence microscope image of the cell stained container after staining was completed was captured with a fluorescence microscope. The obtained fluorescence microscope image was processed with image processing software IMAGE J, to calculate the number of cells and the number of dead cells.

The test system of data set [2] is IL-8 production of nerve cells C and nerve cells D. Put plainly: Cytotoxicity evaluation: inflammatory substance production (IL-8 ELISA). It is filed as cell-based, human. As to conditions: 100, 160, 220 micromoles; 20 hours; FIG. 25. As to the method:
In the same manner as in the evaluation of the cell survival rate, a N9 culture medium (available from Elixirgen Scientific, LLC) to which zinc chloride was added was added, and the container was left to stand still overnight (for 20 hours) in a CO2 incubator at 37 degrees C.
In order to evaluate the influence of zinc chloride on inflammatory substance production, only the culture medium was recovered with a micropipette. IL-8 production was measured by ELISA method using a protein measurement kit (product name: HUMAN IL-8 ELISA READY-SET-GO! (registered trademark), available from Affymetrix), and absorbances at 450 nm, and as a reference value, at 570 nm were measured with a plate reader. The results are plotted in FIG. 25.
(In general: An ELISA detects its analyte on a solid surface through an enzyme-linked reagent.)

Data set [3] relates to nerve cells C and nerve cells D. It is filed as cell-based, human. Particulars: 100, 160, 220 micromoles; 20 hours; FIG. 24. As to the method: In the same manner as in the evaluation of the cell survival rate, the N9 culture medium to which zinc chloride was added as described above was added, and the container was left to stand still overnight (for 20 hours) in a CO2 incubator at 37 degrees C.
In order to evaluate the influence of zinc chloride on cell membrane damage, only the culture medium was recovered with a micropipette and put in a 96-well cell contained container, a LDH assay reagent (product name: CYTOTOXICITY DETECTION KIT, available from Roche) was further added to each, and the resultant was allowed to undergo reaction at room temperature (23 degrees C.) for 5 minutes. Subsequently, absorbances at 492 nm, and as a reference value, at 620 nm were measured with a plate reader, to evaluate “cell membrane damage rate”. The results are plotted in FIG. 24.

The test system is the same in data set [4]. It is filed as cell-based, human. Particulars: 100, 160, 220 micromoles; 20 hours; FIG. 23. As to the method: N9 culture media (available from Elixirgen Scientific, LLC) to which zinc chloride as a test substance at four concentration conditions of 0 micromoles, 100 micromoles, 160 micromoles, and 220 micromoles was added respectively were added in the evaluation container of Production example 2 in an amount of 100 microliters with a micropipette, and the container was left to stand still overnight (for 20 hours) in a CO2 incubator at 37 degrees C.
Next, in order to evaluate the influence of zinc chloride on the cell survival rate, a WST-1 reagent (product name: PREMIX WST-1 CELL PROLIFERATION ASSAY SYSTEM, available from Takara Bio Inc.) was added in an amount of 10 microliters per well (concave), and left to stand still for 1 hour in an CO2 incubator at 37 degrees C. to be allowed to undergo reaction. Subsequently, absorbances at 450 nm, and as a reference value, at 570 nm were measured with a plate reader (instrument name: CYTATION 5, available from Bio Tek Instruments Inc.), to evaluate “cell survival rate”. The results are plotted in FIG. 23.

The mark [5] stands for this setting: drug concentration 0.1 micromoles.
Setting [6] is: drug concentration 0.3 micromoles.
Setting [7] is: drug concentration 1.0 micromoles.
Setting [8] is: drug concentration 3.0 micromoles.
[9] abbreviates: drug concentration 10 micromoles.

In the case of `CN[C@@H]1C[C@H]2O[C@@](C)([C@@H]1OC)n1c3ccccc3c3c4c(c5c6ccccc6n2c5c31)C(=O)NC4` [STAUROSPORINE], the “Drug efficacy rate (living cells/dead cells)” value in data set [1] (setting [5]) is listed as 70%; in data set [1] (setting [6]), 57%; in data set [1] (setting [7]), 54%; in data set [1] (setting [8]), 42%; in data set [1] (setting [9]), 2%. Moreover, the Living cells in data set [1] (setting [5]) is 271 cell; in data set [1] (setting [6]), 270 cell; in data set [1] (setting [7]) it was 268 cell; in data set [1] (setting [8]), 197 cell; in data set [1] (setting [9]), 11 cell. For the same compound, the figures for the Dead cells in data set [1] (setting [6]), in data set [1] (setting [8]) and in data set [1] (setting [9]) were 202 cell, 270 cell and 474 cell, respectively.
With `[Cl-].[Cl-].[Zn+2]` [zinc chloride], the “inflammatory substance production (IL-8), nerve cells C compared with nerve cells D” value in data set [2] is “almost the same toxic response tendency”. In addition, the “cell membrane damage rate, nerve cells C compared with nerve cells D” value in data set [3] is reported as “almost the same toxic response tendency”. Also, the “cell survival rate, nerve cells C compared with nerve cells D” value in data set [4] is “almost the same toxic response tendency”.
